Results reported in patent publication US8088808B2, “Substituted N-phenyl-bipyrrolidine carboxamides and therapeutic use thereof” (Sanofi, priority 2007, dated 2012).
Where a name gives a salt, the structure may show the parent alone.

How the values were obtained:
rhesus H3 = assay: GTPγS radioligand binding assay (inhibition of rhesus H3 constitutive functional activity in cell membranes); format: biochemical, rhesus monkey (Macaca Mulatta); conditions: Table 1; relative to basal level
Procedure: (§1) Rhesus H3 membranes were prepared from the Flp-In T-REx 293 Cell Line (Invitrogen) stably transfected with pcDNA5/FRT/TO (Invitrogen) containing the rhesus monkey (Macaca Mulatta) 445 amino acid H3 receptor. (Genbank #AY231164). Stably transfected cultures were amplified in tissue culture flasks by standard tissue culture methods and induced to express rhesus H3 by exposure to 500 ng/ml tetracycline (Cellgro) for 24 hours. After induction, cells were dissociated from flasks utilizing Cell Stripper (Cellgro). Cells were centrifuged (1K×g, 5 min) and pellet frozen in an ethanol-dry ice bath to disrupt cell membranes. Frozen cell pellet was re-suspended in 5 mM HEPES (pH 7.4, Invitrogen) at 10 ml/1000 cm2 of harvested cells. The cell suspension was drawn through an 18 gauge needle (2-3×) followed by a 23 gauge needle (2-3×) to further disrupt cell membranes. The cell suspension was centrifuged (40K×g, 30 min). Cell membrane pellet was re-suspended in 5 mM HEPES (pH 7.4, Invitrogen) at a final protein concentration of 10 mg/ml. Rhesus H3 membranes were stored under liquid nitrogen prior to use in [3H]-Methylhistamine and GTPγS radioligand binding assays.

MCH receptor = MCH receptor (Homo sapiens, UniProt Q99705); assay: MCH receptor [125J]-ligand binding filtration assay; conditions: 10 μM test compound; percent inhibition of ligand binding
MCH receptor, sequence (Q99705 whole entry): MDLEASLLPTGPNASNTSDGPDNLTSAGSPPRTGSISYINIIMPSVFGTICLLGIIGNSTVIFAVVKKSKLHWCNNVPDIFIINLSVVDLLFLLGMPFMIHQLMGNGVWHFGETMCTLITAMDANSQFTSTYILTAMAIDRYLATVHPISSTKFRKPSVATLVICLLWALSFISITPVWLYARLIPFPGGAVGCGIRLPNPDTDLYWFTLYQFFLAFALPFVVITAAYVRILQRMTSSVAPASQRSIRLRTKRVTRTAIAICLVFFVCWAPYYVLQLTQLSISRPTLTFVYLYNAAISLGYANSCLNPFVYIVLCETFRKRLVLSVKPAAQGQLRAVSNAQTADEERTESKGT
Procedure: The activity of the compounds of this invention at the MCH receptor site, if any was measured by the procedures as set forth below. • Test Compounds The compounds of this invention were stored in a 96-well microtiter plates (1 μL, 10 mM, 100% DMSO). Each of the test sample was diluted with 249 μL of 100% DMSO (dilution 1:250). […] Blank: Assay buffer containing 0.4% DMSO were transferred to the dilution microtiter plates for blanks • Assay Procedure: The filter plates with […] of 0.5% PEI-solution/well were incubated for 2 hours at room temperature. PEI was removed by vacuum filtration just before pipetting (Univac Polyfiltronic/Whatman). The solution of the compound as prepared above (50 μL), or MCH ([…]) or Puffer/DMSO (positive control) were added to 96-well round bottom microtiter plate. Then 50 μl of [^125J]-ligand solution was added followed by 100 μl of membrane suspension. The plates were closed with the lids, and incubated for 60 min. at 25° C. The samples were transferred to GF/B filter plate. The reaction mixture was removed by vacuum filtration, washed 4× with 300 μL ice-cold washing buffer and the washing solution was removed by vacuum filtration. The rubber layer at the bottom of the plate was then removed and the filters were dried over night at room temperature. 25 μL of scintillation cocktail was added and the plates were sealed and, plate frames were added and incubated for 1 hour at room temperature. The radioactivity was then measured, settings ^125J standard, 30 sec./well.

[1] = biological target: rhesus (Macaca Mulatta) H3 receptor (Macaca mulatta, UniProt Q865E1); assay: Rhesus H3 radioligand binding assay ([3H]-Methylhistamine displacement, WGA SPA beads); parameters: species or system rhesus monkey (Macaca Mulatta)
rhesus (Macaca Mulatta) H3 receptor, sequence (Q865E1 1-445): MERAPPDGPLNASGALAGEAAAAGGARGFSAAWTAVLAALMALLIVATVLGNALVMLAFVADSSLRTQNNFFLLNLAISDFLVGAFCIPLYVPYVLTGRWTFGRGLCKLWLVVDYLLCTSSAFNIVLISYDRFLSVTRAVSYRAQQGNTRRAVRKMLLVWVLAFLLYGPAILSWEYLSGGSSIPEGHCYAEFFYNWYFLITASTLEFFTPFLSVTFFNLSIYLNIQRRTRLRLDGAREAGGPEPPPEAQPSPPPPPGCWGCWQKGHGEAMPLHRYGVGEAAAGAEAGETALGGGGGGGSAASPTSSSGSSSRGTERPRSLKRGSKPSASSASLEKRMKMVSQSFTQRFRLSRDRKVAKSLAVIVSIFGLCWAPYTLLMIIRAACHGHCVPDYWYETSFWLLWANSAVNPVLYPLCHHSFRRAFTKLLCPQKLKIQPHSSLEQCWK
Procedure: as §1, with “(Genbank” for “Rhesus H3 membranes were prepared from the Flp-In T-REx 293 Cell Line (Invitrogen) stably transfected with pcDNA5/FRT/TO (Invitrogen) containing the rhesus monkey (Macaca Mulatta) 445 amino acid H3 receptor. (Genbank”
Rhesus H3 radioligand binding assay was performed using rhesus H3 receptor membranes (prepared as described above), [3H]-Methylhistamine (Perkin Elmer) and WGA SPA beads (wheat germ agglutinin scintillation proximity assay) beads (Amersham). The assay was performed in 96-well Opti-Plates (Packard). Each reaction contained 50 μl rhesus H3 membranes (20-30 μg total protein), 50 μl WGA SPA beads (0.1 μg) and 50 μl of 83 Ci/mmol [^3H]-Methylhistamine (final concentration 2 nM) and 50 μl of tested compound. The compounds of this invention and/or vehicle were diluted with binding buffer from 10 mM DMSO stocks. Assay plates were sealed with TopSeal (Perkin Elmer) and mixed on shaker (25° C., 1 hour). Assay plates were read on TopCount scintillation counter (Packard). Results were analyzed by Hill transformation and Ki values were determined by Cheng-Prusoff equation.

[2] = Table 1, [3H]-Methylhistamine 2 nM, Cheng-Prusoff
[3] = Table 2, procedure of Example 42

inhibition at 10 µM (MCH receptor) [%] | Ki [1, 2] [nM] | Ki [1, 3] [nM] | Structure (SMILES) | Inverse Agonism: % inhibition of Basal GTPγS binding in Rhesus H3 (rhesus H3) [%]
1.9 | – | 0.9 | Cc1cc(N2CC[C@H](N3CCC[C@@H]3C)C2)ccc1NC(=O)CC1CCCC1 [Example 21, 2-Cyclopentyl-N-[2-methyl-4-(2(S)-methyl-[1,3′(S)]bipyrrolidinyl-1′-yl)-phenyl]-acetamide trifluoroacetate] | –
9.7 | – | 24.7 | Cc1cc(N2CCC(N3CCCC3C)C2)ccc1NC(=O)c1cn[nH]c1 (stereo not shown) [Example 33, 1H-Pyrazole-4-carboxylic acid [2-methyl-4-(2-methyl-[1,3′]bipyrrolidinyl-1′-yl)-phenyl]-amide trifluoroacetate] | –

The next lines start with the compound.

Structure (SMILES) | inhibition at 10 µM (MCH receptor) [%] | Ki [1, 2] [nM] | Ki [1, 3] [nM] | Inverse Agonism: % inhibition of Basal GTPγS binding in Rhesus H3 (rhesus H3) [%]
CC1CCCN1C1CCN(c2ccc(NC(=O)CC3CCCC3)cc2)C1 (stereo not shown) [Example 36, 2-Cyclopentyl-N-[4-(2-methyl-[1,3′]bipyrrolidinyl-1′-yl)-phenyl]-acetamide trifluoroacetate] | 0.7 | 3.14 | 3.1 | −33
Cc1cc(N2CC[C@H](N3CCC[C@@H]3C)C2)ccc1NC(=O)c1ccoc1 [Example 6, Furan-3-carboxylic acid [2-methyl-4-(2S-methyl-[1,3′S]bipyrrolidinyl-1′-yl)-phenyl]-amide trifluoro-acetate] | -6.9 | 1.8 | 1.8 | −17
Cc1cc(C(=O)Nc2ccc(N3CCC(N4CCCC4C)C3)cc2C)n[nH]1 (stereo not shown) [Example 20, 5-Methyl-1H-pyrazole-3-carboxylic acid [2-methyl-4-(2-methyl-[1,3′]bipyrrolidinyl-1′-yl)-phenyl]-amide trifluoroacetate] | 24.3 | – | 30.9 | –
Cc1cc(N2CC[C@H](N3CCC[C@@H]3C)C2)ccc1NC(=O)C1CCCCC1 [Example 2, Cyclohexanecarboxylic acid [2-methyl-4-(2S-methyl-[1,3′S]bipyrrolidinyl-1′-yl)-phenyl]-amide trifluoro-acetate] | -2.1 | – | 0.4 | –
